Experiment: Solubility of invention compounds in reactive diluents and oligomers
Type: physicochemical

C=C(C)C(=O)OCCC[Si]12O[Si]3(CCCOC(=O)C(=C)C)O[Si]4(CCCOC(=O)C(=C)C)O[Si](CCCOC(=O)C(=C)C)(O1)O[Si]1(CCCOC(=O)C(=C)C)O[Si](CCCOC(=O)C(=C)C)(O2)O[Si](CCCOC(=O)C(=C)C)(O3)O[Si](CCCOC(=O)C(=C)C)(O4)O1 [I.10]
50 wt %: Solubility in CN501 (in CRAYNOR CN501, amino-modified polether acrylate, * footnote: complete solubility after addition of a very small amount of CH2Cl2) | Solubility in TMPTA (in TMPTA = trihydroxymethylpropane triacrylate, * / # footnotes: dissolved after addition of a very small amount of CH2Cl2) | Solubility in TPGDA (in TPGDA = tri(propyleneglycol) diacrylate, * / # footnotes: dissolved after addition of a very small amount of CH2Cl2)

From patent publication US7297460B2, “Radiation curable ink compositions suitable for ink-jet printing” (Agfa-Gevaert, priority 2003, dated 2007)
